Experimental data reported in patent EP1061957B1, “MANGANESE (II) CHELATES WITH HIGH RELAXIVITY IN SERUM” (BRACCO S.p.A., priority 1998, dated 1999).
Read-outs that look alike come from different tables or passages of the source.

Key:
[1] = Relaxivity in human serum reconstituted from Seronorm Human; assay type: physicochemical; details: human serum reconstituted from lyophilized Seronorm Human (Nycomed Pharma)
Description: The relaxivity of the compounds of the invention was measured both in saline solution and in human serum, reconstituted from Seronorm^(R) Human (Nycomed Pharma), lyophilized human serum.

mouse [2] = details: literature value, cited from earlier work
[3] = Thermodynamic stability constant in aqueous solution, potentiometric method; assay type: physicochemical; details: 20°C, 0.1 M KCl aqueous solution
mouse [4] = test: Acute toxicity, DL50 in the mouse; assay type: in vivo; details: i.v.
[5] = thermodynamic stability constant; from Smith and Martell, Critical Stability Constants, Vol. 6; cited from earlier work

Row | Compound | Relaxivity Seronorm Human r1 [1] | DL50 (mouse [2]; i.v.) | Log KML [3] | DL50 (mouse [4]) | Log KML [5] | DL50 (mouse [2]; i.p.)
1 | [Cl][Mn][Cl] [MnCl2] | 53 ^(3) mM^-1s^-1 | 0.25 - 0.30 ^(1) mmol/kg | – | – | – | –
2 | Manganese complex(II) of N,N'-1,2-ethanediylbis[N-(carboxymethyl)-O-(phenylmethyl) -D,L-serine] salified with 1-deoxy-1-(methyl amino) -D-glucitol (1:2) [EXAMPLE 1] | 36 ^(3) mM^-1s^-1 | – | 13.8 ± 0.1 | 4.5 mmol/kg | – | –
3 | Mn-EDTA | 10 ^(3) mM^-1s^-1 | – | – | – | 13.88 ^(2) | 5.9 ^(2) mmol/kg
